Assay results taken from patent US20250163104A1, “MACROCYCLIC IMMUNOMODULATORS” (priority 2021, published 2025).
pIC50: −log10 of the molar value. Where a SMILES comes first, the peptide text is derived from it. Bridges are numbered along the chain shown (N, C = ends). [ ]: non-standard residue; d: D form. The star is where a group is joined. Phe(4-COOH) = N[C@@H](Cc1ccc(C(=O)O)cc1)C(=O)O; Bip = N[C@@H](Cc1ccc(-c2ccccc2)cc1)C(=O)O; Orn(N3) = [N-]=[N+]=NCCC[C@H](N)C(=O)O; Phe(3-Me) = Cc1cccc(C[C@H](N)C(=O)O)c1; 4Pal = N[C@@H](Cc1ccncc1)C(=O)O; Cha = N[C@@H](CC1CCCCC1)C(=O)O; Cit = NC(=O)NCCC[C@H](N)C(=O)O; Carboxymethyl = O=C(O)C*; Orn = NCCC[C@H](N)C(=O)O; Dab = NCC[C@H](N)C(=O)O; Dap = NC[C@H](N)C(=O)O; Propargyl = C#CC*

These compounds were tested against T1, human PD-1 / PD-L1-Ig binding on Jurkat cell line over-expressing human PD-1 (Jurkat-PD-1) (Homo sapiens, UniProt Q15116) (assay: Jurkat-PD-1 Cell Binding High-Content Screening Assay (CBA)). Details: Jurkat-PD-1 cells, PE-labeled PD-L1-Ig 20 nM final; read-out: Jurkat HPD1_PDL1 IC50.
T1 construct: expressed in transfected cells; host or cells: Jurkat
Assay type: cell-based
In short: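 Compounds were preincubated with Jurkat-hPD-1 cells in DMEM plus 10% fetal calf serum for 2 h at 37° C. Phycoerythrin-labeled PD-L1-Ig (20 nM final) was then added for 1 hour. Cells were fixed in 4% paraformaldehyde with Hoechst 33342, and bound fluorescence was quantified by high-content imaging.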

T1 sequence (Q15116 25-288): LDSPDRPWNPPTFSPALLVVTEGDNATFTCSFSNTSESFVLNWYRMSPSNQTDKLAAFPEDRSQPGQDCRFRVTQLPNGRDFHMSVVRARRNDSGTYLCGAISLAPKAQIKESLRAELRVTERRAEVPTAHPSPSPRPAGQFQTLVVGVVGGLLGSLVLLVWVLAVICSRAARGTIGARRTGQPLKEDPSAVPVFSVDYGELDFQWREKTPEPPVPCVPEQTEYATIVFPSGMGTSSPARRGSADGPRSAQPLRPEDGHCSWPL

Row | pIC50 | Compound
1 | 8.05 | Cc1cccc(C[C@@H]2NC(=O)[C@H](CC(=O)O)NC(=O)[C@H](Cc3ccc(C(=O)O)cc3)NC(=O)[C@H](Cc3ccncc3)NC(=O)CSC[C@@H](C(=O)N[C@H](CC(N)=O)C(N)=O)NC(=O)[C@H](CO)NC(=O)[C@H](C(C)C)NC(=O)[C@H](CC3CCCCC3)NC(=O)[C@H](CCN)NC(=O)[C@@H](CC(C)C)NC(=O)[C@H](CCCN)NC(=O)[C@H](Cc3ccc(O)cc3)NC(=O)[C@H](Cc3ccc(-c4ccccc4)cc3)NC(=O)[C@H](Cc3ccc(O)cc3)NC2=O)c1 [Compound 2286] ({CH2CO}-[4Pal][Phe(4-COOH)]D[Phe(3-Me)]Y[Bip]Y[Orn][dL][Dab][Cha]VSC[dN]-NH2; thioether N-14)
2 | 7.52 | CC(C)C[C@H]1NC(=O)[C@H](CCCN)NC(=O)[C@H](CCC(=O)O)NC(=O)[C@H](Cc2ccc(-c3ccccc3)cc2)NC(=O)[C@H](C(C)C)NC(=O)[C@H](Cc2c[nH]c3ccccc23)NC(=O)[C@H](CC(=O)O)NC(=O)[C@H](Cc2ccc(C(=O)O)cc2)NC(=O)[C@H](Cc2ccc(OCC(=O)O)cc2)NC(=O)CSC[C@@H](C(=O)N[C@@H](C)C(N)=O)NC(=O)[C@H]([C@@H](C)O)NC(=O)[C@H](C(C)C)NC(=O)[C@H](Cc2ccccc2)NC(=O)[C@H](CCN)NC1=O [Compound 1667] ({CH2CO}-Y(Carboxymethyl)[Phe(4-COOH)]DWV[Bip]E[Orn][dL][Dab]FVTCA-NH2; thioether N-14)
3 | 7.41 | CC(C)C[C@@H]1NC(=O)[C@H](Cc2c[nH]c3ccccc23)NC(=O)[C@H](CC(=O)O)NC(=O)[C@H](Cc2ccc(O)cc2)NC(=O)[C@H](Cc2ccccc2)NC(=O)CSC[C@@H](C(=O)NCC(N)=O)NC(=O)[C@H]([C@@H](C)O)NC(=O)[C@H](C(C)C)NC(=O)[C@H](CC(C)C)NC(=O)[C@H](CC(N)=O)NC(=O)[C@@H](CC(C)C)NC(=O)[C@H](CN)NC(=O)[C@H](C(C)C)NC(=O)[C@H](Cc2ccc(-c3ccccc3)cc2)NC1=O [Compound 1070] ({CH2CO}-FYDWL[Bip]V[Dap][dL]NLVTCG-NH2; thioether N-14)
4 | 7.71 | CC[C@H](C)[C@@H]1NC(=O)[C@H](Cc2ccc(-c3ccccc3)cc2)NC(=O)[C@H](C(C)C)NC(=O)[C@H](Cc2c[nH]c3ccccc23)NC(=O)[C@H](CC(=O)O)NC(=O)[C@H](Cc2ccc(OCC(=O)O)cc2)NC(=O)[C@H](CN)NC(=O)CSC[C@@H](C(=O)N[C@@H](C)C(N)=O)NC(=O)[C@H]([C@@H](C)O)NC(=O)[C@H](C(C)C)NC(=O)[C@H](Cc2ccccc2)NC(=O)[C@H](CCN)NC(=O)[C@@H](CC(C)C)NC(=O)[C@H](CCCN)NC1=O [Compound 1658] ({CH2CO}-[Dap]Y(Carboxymethyl)DWV[Bip]I[Orn][dL][Dab]FVTCA-NH2; thioether N-14)
5 | 7.00 | C#CCOc1ccc(C[C@@H]2NC(=O)[C@H](CN)NC(=O)CSC[C@@H](C(=O)N[C@@H](CCCN=[N+]=[N-])C(N)=O)NC(=O)[C@H]([C@@H](C)O)NC(=O)[C@H](C(C)C)NC(=O)[C@H](CC3CCCCC3)NC(=O)[C@H](CCN)NC(=O)[C@@H](CC(C)C)NC(=O)[C@H](CCCN)NC(=O)[C@H](CCC(=O)O)NC(=O)[C@H](Cc3ccc(-c4ccccc4)cc3)NC(=O)[C@H](C(C)C)NC(=O)[C@H](Cc3c[nH]c4ccccc34)NC(=O)[C@H](CC(=O)O)NC2=O)cc1 [Compound 1537] ({CH2CO}-[Dap]Y(Propargyl)DWV[Bip]E[Orn][dL][Dab][Cha]VTC[Orn(N3)]-NH2; thioether N-14)
6 | 7.96 | Cc1cccc(C[C@@H]2NC(=O)[C@H](CC(=O)O)NC(=O)[C@H](Cc3ccc(C(=O)O)cc3)NC(=O)[C@H](Cc3ccncc3)NC(=O)CSC[C@@H](C(N)=O)NC(=O)[C@H]([C@@H](C)O)NC(=O)[C@H](C(C)C)NC(=O)[C@H](CC3CCCCC3)NC(=O)[C@H](CCN)NC(=O)[C@@H](CC(C)C)NC(=O)[C@H](CCCN)NC(=O)[C@H](CCCNC(N)=O)NC(=O)[C@H](Cc3ccc(-c4ccccc4)cc3)NC(=O)[C@H](C(C)C)NC2=O)c1 [Compound 1549] ({CH2CO}-[4Pal][Phe(4-COOH)]D[Phe(3-Me)]V[Bip][Cit][Orn][dL][Dab][Cha]VTC-NH2; thioether N-14)
